Laboratory results: PubChem BioAssay (NCI)
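Step 1: Grow cells in 96-well plates. Step 2: Expose to compound for 48 hours at 5 concentrations. Step 3: Interpolate endpoints linearly; if unreached, use highest concentration. The concentration for full growth arrest is given as TGI.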

How the values were obtained:
Experiment in all cases: NCI tumour cell line growth inhibition, 48 h
[1] = tested on: 786-0 renal
[2] = tested on: A498 renal
[3] = tested on: A549 NSCLC
[4] = tested on: ACHN renal
[5] = tested on: BT-549 breast
[6] = tested on: CAKI-1 renal
[7] = tested on: CCRF-CEM leukemia
[8] = tested on: COLO 205 colon
[9] = tested on: DU-145 prostate
[10] = tested on: EKVX NSCLC
[11] = tested on: HCT-116 colon
[12] = tested on: HCT-15 colon
[13] = tested on: HL-60(TB) leukemia
[14] = tested on: HOP-92 NSCLC
[15] = tested on: HT29 colon
[16] = tested on: IGROV1 ovarian
[17] = tested on: K-562 leukemia
[18] = tested on: KM12 colon
[19] = tested on: LOX IMVI melanoma
[20] = tested on: M14 melanoma
[21] = tested on: MALME-3M melanoma
[22] = tested on: MDA-MB-231 breast
[23] = tested on: MDA-MB-435
[24] = tested on: MDA-N
[25] = tested on: MOLT-4 leukemia
[26] = tested on: NCI-H226 lung
[27] = tested on: NCI-H23 lung
[28] = tested on: NCI-H460 lung
[29] = tested on: NCI-H522 lung
[30] = tested on: NCI/ADR-RES ovarian
[31] = tested on: OVCAR-3 ovarian
[32] = tested on: OVCAR-4 ovarian
[33] = tested on: OVCAR-5 ovarian
[34] = tested on: OVCAR-8 ovarian
[35] = tested on: PC-3 prostate
[36] = tested on: RPMI-8226 leukemia
[37] = tested on: RXF 393 renal
[38] = tested on: SF-268 CNS
[39] = tested on: SF-295 CNS
[40] = tested on: SF-539 CNS
[41] = tested on: SK-MEL-2 melanoma
[42] = tested on: SK-MEL-28 melanoma
[43] = tested on: SK-MEL-5 melanoma
[44] = tested on: SK-OV-3 ovarian
[45] = tested on: SN12C renal
[46] = tested on: SNB-19 CNS
[47] = tested on: SNB-75 CNS
[48] = tested on: SW-620 colon
[49] = tested on: T-47D breast
[50] = tested on: TK-10 renal
[51] = tested on: U251 CNS
[52] = tested on: UACC-257 melanoma
[53] = tested on: UACC-62 melanoma
[54] = tested on: UO-31 renal
[55] = tested on: HCC-2998 colon
[56] = tested on: HOP-62 NSCLC
[57] = tested on: HS 578T breast
[58] = tested on: MCF7 breast
[59] = tested on: SR leukemia

Measured: TGI

CCOC(=O)c1ccc(-c2cc(C)no2)[nH]1
> 100 µM: [1] | [2] | [3] | [4] | [5] | [7] | [8] | [9] | [10] | [11] | [12] | [13] | [14] | [15] | [16] | [17] | [18] | [19] | [20] | [21] | [22] | [24] | [25] | [26] | [27] | [28] | [29] | [30] | [31] | [32] | [33] | [34] | [35] | [36] | [37] | [38] | [39] | [40] | [41] | [42] | [43] | [44] | [45] | [46] | [47] | [48] | [49] | [50] | [51] | [52] | [53] | [54]
71.5 µM: [6]
29.3 µM: [23]

COc1ccccc1CC(=O)C(O)(C(F)(F)F)C(F)(F)F
> 100 µM: [1] | [2] | [3] | [4] | [6] | [7] | [8] | [9] | [10] | [55] | [11] | [12] | [13] | [56] | [14] | [57] | [15] | [16] | [17] | [18] | [19] | [20] | [21] | [58] | [22] | [23] | [24] | [25] | [26] | [27] | [28] | [29] | [30] | [31] | [32] | [33] | [34] | [35] | [36] | [37] | [38] | [39] | [40] | [41] | [42] | [43] | [44] | [45] | [46] | [47] | [59] | [48] | [49] | [50] | [51] | [52] | [53] | [54]

O=c1[nH]c(=O)c2c3n(cc2[nH]1)CCCCC3
> 100 µM: [1] | [2] | [3] | [4] | [6] | [7] | [8] | [9] | [10] | [55] | [11] | [12] | [13] | [56] | [14] | [57] | [15] | [16] | [17] | [18] | [19] | [20] | [21] | [58] | [22] | [23] | [24] | [25] | [26] | [27] | [28] | [29] | [30] | [32] | [33] | [34] | [35] | [36] | [37] | [38] | [39] | [42] | [43] | [44] | [45] | [46] | [47] | [59] | [49] | [50] | [51] | [52] | [53] | [54]
